Laboratory results taken from publication PMC12645191, “Dicarboxylate and dicarboxylic acid appended supramolecular self-associating amphiphiles as antimicrobial agents against high priority bacterial pathogens” (Organic & Biomolecular Chemistry, 2025).
Converted amounts (≈) assume the structure as drawn. “And” between values parts separate entries of the source, which are not always exact repeats. Identical values can stand only once. One block for each compound: values may come before it.

Key:
[1] = kinetic solubility determination in PBS pH 7.4; settings: PBS, pH 7.4, aqueous buffer, kinetic from dmso stock, Solubility in PBS pH 7.4, kinetic; upper limit set at 300 µM
[2] = quantitative (Q) 1H NMR spectroscopy, proportion of SSA becoming NMR silent (higher-order aggregates); assay type: physicochemical; settings: for (Q) 1H NMR, proportion NMR silent, SSA acid or anion: ~112 mM, DMSO-d6 1.0% DCM
Procedure: To confirm the presence of higher order self-associative structures quantitative (Q) ^1H NMR spectroscopy studies were undertaken at 5.6 mM in D2O 5% EtOH. Here the ^1H NMR resonances attributed to the EtOH are used as an internal standard.
Table S1 – Overview of results of the quantitative (Q) 1H NMR studies for 1, 3, 5, 7 and 9
5.0 % EtOH . Values given in % represent the observed proportion of the SSA that has become
Table S2 – Overview of results of the quantitative (Q) 1H NMR studies for 2, 4, 6, 8 and 10
5.0 % EtOH. Values given in % represent the observed proportion of anion and cation that has

[3] = tensiometry: critical aggregate concentration (CAC) and surface tension; assay type: physicochemical; settings: for ST at CAC / CAC (footnote in place of a value): H2O 5.0% EtOH, 298 K; for Surface tension at CAC: H2O/5.0 % EtOH
Procedure: As the (Q) ^1H NMR spectroscopy experiments conducted at 5.6 mM in a D2O 5.0% EtOH solution confirmed the presence of higher-order self-associated structures with solid-like properties, concentration dependent surface tension measurements, obtained through tensiometry, were used to calculate critical aggregate concentration (CAC). Here the CAC is defined as the point at which an increase in SSA concentration no longer decreases surface tension but instead results in the formation of higher-order self-associated structures.

[4] = dynamic light scattering (DLS) of SSA aggregates; assay type: physicochemical; settings: 5.6 mM, H2O 5.0% EtOH, 298 K
Procedure: Dynamic light scattering (DLS) and zeta potential measurements in H2O 5.0% EtOH were used to determine the hydrodynamic diameter (dH) and stability of the higher-order SSA aggregates detected by (Q) ^1H NMR spectroscopy at 5.6 mM, Table 1. […] However, we are unable to confidently report a dH for 1 due to the instability of this system, which is supported by a zeta potential value of −26 mV, obtained for this SSA under the same experimental conditions. […] Due to the instability of these systems in the absence of solvent, attempts to further characterise these systems through SEM or AFM are not possible.[48]

[5] = test system: P. aeruginosa PAO1; experiment: inhibition of bacterial growth, OD600 after 20 h; assay type: cell-based, Pseudomonas aeruginosa; settings: SSA 5.0 mM, 2.5% ethanol, negative = enhanced growth
Procedure: (§1) With the self-associative properties of 1–10 established, the antimicrobial activity of these SSAs were determined against a panel of clinically relevant, high-priority pathogens including: P. aeruginosa PAO1; Klebsiella pneumonia (K. pneumoniae) M6; E. coli NCTC 12923; Acinetobacter baumannii (A. baumannii) ATCC 17978; S. aureus ATCC 9144; Enterococcus faecalis (E. faecalis) NCTC 775; and Enterococcus faecium (E. faecium) NCTC 12204. […] However, it should be noted that the SSA stock solution was prepared in a H2O 5% EtOH solution, to ensure that the SSA aggregates formed were in line with those characterised within the scope of the SSA self-association studies.
(§2) Section 3: Biological methods
(§3) These methods were taken directly from UK Health and Security Office (UKHSA) standard […]
(§4) Preparation of Luria Broth media (LB): Yeast extract (5.0 g), tryptone (10.0 g) and sodium chloride (10.0 g) were dissolved in dH₂O (1.0 L) then divided into bottles and autoclaved.
(§5) Preparation of Luria Broth (LB) agar plates: Agar (6.0 g) was added to LB (400 mL) and autoclaved. Once cool, the LB agar was poured into sterile petri dishes under sterile conditions and allowed to set. LB plates were stored at 4 °C until use.
(§6) Preparation of bacterial plates: Sterile LB agar plates were streaked using streaked using the desired bacteria i) Pseudomonas aeruginosa (P.aeruginosa) PAO1, ii) Klebsiella pneumoniae (K. pneumoniae) M6 iii) E. coli NCTC 12923 and iv) Acinetobacter baumannii (A. baumannii) ATCC 17978 and Gram-positive i) Staphylococcus aureus (S. aureus) ATCC 9144 ii) Enterococcus faecalis (E. faecalis) NCTC 775 and iii) Enterococcus faecium (E. faecium ) NCTC 12204, then incubated at 37 °C overnight.
(§7) Preparation of Inoculum: An initial culture was made up by inoculating LB media (5 mL) with a single colony of bacteria under sterile conditions and incubated at 37 °C with shaking overnight. The following day, overnight bacterial cultures were subcultured into fresh LB medium to a starting OD600 of 0.01.
(§8) Preparation of 96 well microplate for MIC50: The 1:100 cell suspension (150 µL) was dispensed into individual wells under sterile conditions. SSAs (30 µL) were added to the wells to equal a total volume of 180 µL in the wells. Six repeats of each concentration for each SSA were created each plate. The plates were sealed using parafilm, then incubated at 37 °C in a microplate reader for 20 hours. OD600 endpoint data was used to generate growth curves. […]

[6] = test system: K. pneumoniae M6; experiment: inhibition of bacterial growth, OD600 after 20 h; assay type: cell-based, Klebsiella pneumoniae; settings: SSA 5.0 mM, 2.5% ethanol, negative = enhanced growth
Procedure: as §1, §2, §3, §4, §5, §6, §7, §8

[7] = test system: E. coli NCTC 12923; experiment: inhibition of bacterial growth, OD600 after 20 h; assay type: cell-based, Escherichia coli; settings: SSA 5.0 mM, 2.5% ethanol, negative = enhanced growth
Procedure: as §1, §2, §3, §4, §5, §6, §7, §8

[8] = test system: A. baumannii ATCC 17978; experiment: inhibition of bacterial growth, OD600 after 20 h; assay type: cell-based, Acinetobacter baumannii; settings: SSA 5.0 mM, 2.5% ethanol, negative = enhanced growth
Procedure: as §1, §2, §3, §4, §5, §6, §7, §8

[9] = test system: S. aureus ATCC 9144; experiment: inhibition of bacterial growth, OD600 after 20 h; assay type: cell-based, Staphylococcus aureus; settings: SSA 5.0 mM, 2.5% ethanol, negative = enhanced growth
Procedure: as §1, §2, §3, §4, §5, §6, §7, §8

[10] = test system: E. faecalis NCTC 775; experiment: inhibition of bacterial growth, OD600 after 20 h; assay type: cell-based, Enterococcus faecalis; settings: SSA 5.0 mM, 2.5% ethanol, negative = enhanced growth; for inhibition at 5000 µM: Enterococcus faecalis, NCTC775, 20 h, read-out: Percentage inhibition of bacterial growth, NCTC 775 (E. faecalis)
Procedure: as §1, §2, §3, §4, §5, §6, §7, §8

[11] = test system: E. faecium NCTC 12204; experiment: inhibition of bacterial growth, OD600 after 20 h; assay type: cell-based, Enterococcus faecium; settings: SSA 5.0 mM, 2.5% ethanol, negative = enhanced growth
Procedure: as §1, §2, §3, §4, §5, §6, §7, §8

solubility [1]: 281 µM (≈ 83.2 µg/mL)
Compound: O=C(O)Cc1ccccc1Nc1c(Cl)cccc1Cl [Diclofenac, reference compound]

(Q) 1H NMR spectroscopy, proportion NMR silent, acid or anion ([2]; 5.6 mM, D2O 5.0% EtOH, 298 K, listed as 5): 56%
(Q) 1H NMR, proportion NMR silent, SSA acid or anion [2]: 0%
ST at CAC [3]: 58 mN m^−1
CAC (footnote in place of a value) ([3]; listed as 5): ^b (CAC above the limit of solubility)
Surface tension at CAC ([3]; listed as 5): 58.22 mN/m
DLS Peak 2 maxima ([4]; listed as 5): 1328 nm
Polydispersity index (%) ([4]; listed as 5): 22.7 (± 1.5) %
dH (DLS intensity distribution peak 1 maxima) ([4]; listed as 5): 153 nm
Compound: COc1ccc(NC(=O)N[C@@H](CCC(=O)O)C(=O)O)cc1 [SSA 5]
Percentage inhibition of bacterial growth, PAO1 (P. aeruginosa) ([5]; listed as 5): 0%
inhibition at 5000 µM ([6]; Klebsiella pneumoniae, M6, 20 h, read-out: Percentage inhibition of bacterial growth, M6 (K. pneumoniae)): 12.8%
Percentage inhibition of bacterial growth, M6 (K. pneumoniae) ([6]; listed as 5): 13%
Percentage inhibition of bacterial growth, NCTC 12923 (E. coli) ([7]; listed as 5): 70.96% and 71%
Percentage inhibition of bacterial growth, ATCC 17978 (A. baumannii) ([8]; listed as 5): 18.61% and 19%
Percentage inhibition of bacterial growth, ATCC 9144 (S. aureus) ([9]; listed as 5): 12.67% and 13%
inhibition at 5000 µM [10]: 13%
Percentage inhibition of bacterial growth, NCTC 775 (E. faecalis) ([10]; listed as 5): 13%
inhibition at 5000 µM ([11]; Enterococcus faecium, NCTC12204, 20 h, read-out: Percentage inhibition of bacterial growth, NCTC 12204 (E. faecium)): 5.8%
Percentage inhibition of bacterial growth, NCTC 12204 (E. faecium) ([11]; listed as 5): 6%

(Q) 1H NMR, proportion NMR silent, SSA acid or anion [2]: 0%
CAC (footnote in place of a value) [3]: ^b (CAC above the limit of solubility)
ST at CAC ([3]; listed as 7): 55 mN m^−1
Surface tension at CAC ([3]; listed as 7): 54.72 mN/m
DLS Peak 2 maxima ([4]; listed as 7): 5177 nm
Polydispersity index (%) ([4]; listed as 7): 19.6 (± 1.7) %
dH (DLS intensity distribution peak 1 maxima) ([4]; listed as 7): 214 nm
Compound: COc1ccc(NC(=O)N[C@@H](CC(=O)O)C(=O)O)cc1 [SSA 7]
Percentage inhibition of bacterial growth, PAO1 (P. aeruginosa) ([5]; listed as 7): -24.25% and −24%
Percentage inhibition of bacterial growth, M6 (K. pneumoniae) ([6]; listed as 7): 32.42% and 32%
Percentage inhibition of bacterial growth, NCTC 12923 (E. coli) ([7]; listed as 7): 64.22% and 64%
Percentage inhibition of bacterial growth, ATCC 17978 (A. baumannii) ([8]; listed as 7): 24.84% and 25%
Percentage inhibition of bacterial growth, ATCC 9144 (S. aureus) ([9]; listed as 7): 5.65% and 6%
inhibition at 5000 µM [10]: 47.2%
Percentage inhibition of bacterial growth, NCTC 775 (E. faecalis) ([10]; listed as 7): 47%
Percentage inhibition of bacterial growth, NCTC 12204 (E. faecium) ([11]; listed as 7): 50.11% and 50%
